Patent US12281225B2, “Process for preparing stable polymers containing vinylimidazole” (BASF SE, priority 2018, dated 2025)

Experiments:
[1] = tested on: Bacteria: Escherichia coli, Staphylococcus aureus, Pseudomonas aeruginosa, Pseudomonas putida, Burkholderia cepacia, Alcaligenes faecalis; assay: Preservation test with periodic inoculation, bacteria assessment; format: cell-based; conditions: Polymer P4; sample stored 60 d at 40° C.
Summary of the method: (§1)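 Polymer samples (25 g) containing preservative were inoculated weekly, four times, with 10^9/ml bacterial or yeast mixtures (0.5 ml). Weekly streaks on agar were scored semiquantitatively (−− to ++) after 3 days at 25 °C, on fresh samples and on samples stored 60 days at 40 °C.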

[2] = Analysis of active substance: preservative concentration before and after storage in VI-containing polymer solution; format: physicochemical; conditions: for active-substance concentration, 0 d, RT: before storage; for active-substance concentration, 14 d, 40° C.: storage 14 d at 40° C.; for active-substance concentration, 28 d, 40° C.: storage 28 d at 40° C.; for active-substance concentration, 60 d 40° C.: storage 60 d at 40° C.
Summary of the method: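 Preservatives (MIT, BIT, CMIT, OIT, DCOIT, iodopropynyl butyl carbamate) in aqueous vinylpyrrolidone–vinylimidazole copolymer solution quantified after dilution by isocratic RP18 chromatography with UV detection, using an acid-methanol eluent.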

[3] = tested on: Yeast: Candida albicans, Candida valida, Rhodotorula rura, Saccharomyces cerevisiae; assay: Preservation test with periodic inoculation, yeast assessment; format: cell-based; conditions: for 60 d 40° C., yeast assess., 4th inoculation: sample stored 60 d at 40° C.; for Start sample measurement, yeast assess., 4th inoculation: freshly formulated
Summary of the method: as §1

[4] = Iodine color number according to DIN 6162:2014-09; format: physicochemical
[5] = Polymer P5 (HP56) with stabilizer

CCCCCCCCCCCCCCCC[N+](C)(C)Cc1ccccc1.[Cl-] [Polymer 16-BAC, cetylalkonium chloride]
60 d 40° C., bact. assess., 4th inoculation [1]: − (slight growth, max. 100 colonies) | active-substance concentration, 0 d, RT ([2]; in Polymer P1): 1000 ppm | active-substance concentration, 14 d, 40° C. ([2]; in Polymer P1): 960 ppm | active-substance concentration, 28 d, 40° C. ([2]; in Polymer P1): 960 ppm | active-substance concentration, 60 d 40° C. ([2]; in Polymer P1): 940 ppm | active-substance concentration, 0 d, RT ([2]; in Polymer P2): 1000 ppm | active-substance concentration, 14 d, 40° C. ([2]; in Polymer P2): 960 ppm | active-substance concentration, 28 d, 40° C. ([2]; in Polymer P2): 960 ppm | active-substance concentration, 60 d 40° C. ([2]; in Polymer P2): 940 ppm | active-substance concentration, 0 d, RT ([2]; in Polymer P3): 1000 ppm | active-substance concentration, 14 d, 40° C. ([2]; in Polymer P3): 975 ppm | active-substance concentration, 28 d, 40° C. ([2]; in Polymer P3): 968 ppm | active-substance concentration, 60 d 40° C. ([2]; in Polymer P3): 952 ppm | active-substance concentration, 0 d, RT ([2]; in Polymer P4): 1000 ppm | active-substance concentration, 14 d, 40° C. ([2]; in Polymer P4): 964 ppm | active-substance concentration, 28 d, 40° C. ([2]; in Polymer P4): 960 ppm | active-substance concentration, 60 d 40° C. ([2]; in Polymer P4): 944 ppm | active-substance concentration, 0 d, RT ([2]; in Polymer P5 (HP56)): 1000 ppm | active-substance concentration, 14 d, 40° C. ([2]; in Polymer P5 (HP56)): 960 ppm | active-substance concentration, 28 d, 40° C. ([2]; in Polymer P5 (HP56)): 960 ppm | active-substance concentration, 60 d 40° C. ([2]; in Polymer P5 (HP56)): 940 ppm | active-substance concentration, 0 d, RT ([2]; in Polymer P6): 1000 ppm | active-substance concentration, 14 d, 40° C. ([2]; in Polymer P6): 970 ppm | active-substance concentration, 28 d, 40° C. ([2]; in Polymer P6): 961 ppm | active-substance concentration, 60 d 40° C. ([2]; in Polymer P6): 954 ppm | active-substance concentration, 0 d, RT ([2]; in Polymer P7): 1000 ppm | active-substance concentration, 14 d, 40° C. ([2]; in Polymer P7): 975 ppm | active-substance concentration, 28 d, 40° C. ([2]; in Polymer P7): 966 ppm | active-substance concentration, 60 d 40° C. ([2]; in Polymer P7): 953 ppm | active-substance concentration, 0 d, RT ([2]; in Polymer P8): 1000 ppm | active-substance concentration, 14 d, 40° C. ([2]; in Polymer P8): 960 ppm | active-substance concentration, 28 d, 40° C. ([2]; in Polymer P8): 960 ppm | active-substance concentration, 60 d 40° C. ([2]; in Polymer P8): 940 ppm | active-substance concentration, 0 d, RT ([2]; in Polymer P9): 1000 ppm | active-substance concentration, 14 d, 40° C. ([2]; in Polymer P9): 960 ppm | active-substance concentration, 28 d, 40° C. ([2]; in Polymer P9): 960 ppm | active-substance concentration, 60 d 40° C. ([2]; in Polymer P9): 940 ppm | 60 d 40° C., yeast assess., 4th inoculation ([3]; Polymer P1): − (slight growth, max. 100 colonies) | Start sample measurement, yeast assess., 4th inoculation ([3]; Polymer P2): − (slight growth, max. 100 colonies) | 60 d 40° C., yeast assess., 4th inoculation ([3]; Polymer P2): − (slight growth, max. 100 colonies) | Start sample measurement, yeast assess., 4th inoculation ([3]; Polymer P3): − (slight growth, max. 100 colonies) | 60 d 40° C., yeast assess., 4th inoculation ([3]; Polymer P3): − (slight growth, max. 100 colonies) | Start sample measurement, yeast assess., 4th inoculation ([3]; Polymer P4): − (slight growth, max. 100 colonies) | 60 d 40° C., yeast assess., 4th inoculation ([3]; Polymer P4): − (slight growth, max. 100 colonies) | Start sample measurement, yeast assess., 4th inoculation ([3]; Polymer P5 (HP56)): − (slight growth, max. 100 colonies) | 60 d 40° C., yeast assess., 4th inoculation ([3]; Polymer P5 (HP56)): − (slight growth, max. 100 colonies) | Start sample measurement, yeast assess., 4th inoculation ([3]; Polymer P6): − (slight growth, max. 100 colonies) | 60 d 40° C., yeast assess., 4th inoculation ([3]; Polymer P6): − (slight growth, max. 100 colonies) | Start sample measurement, yeast assess., 4th inoculation ([3]; Polymer P7): − (slight growth, max. 100 colonies) | 60 d 40° C., yeast assess., 4th inoculation ([3]; Polymer P7): − (slight growth, max. 100 colonies) | 60 d 40° C., yeast assess., 4th inoculation ([3]; Polymer P8): − (slight growth, max. 100 colonies) | 60 d 40° C., yeast assess., 4th inoculation ([3]; Polymer P9): − (slight growth, max. 100 colonies) | Iodine color number, 60 d 40° C. ([4]; Polymer P1 with stabilizer): 2.7 | Iodine color number, start ([4]; Polymer P1 with stabilizer): 2.6 | Iodine color number, 60 d 40° C. ([4]; Polymer P2 with stabilizer): 3.1 | Iodine color number, start ([4]; Polymer P2 with stabilizer): 3.0 | Iodine color number, 60 d 40° C. ([4]; Polymer P3 with stabilizer): 3.3 | Iodine color number, start ([4]; Polymer P3 with stabilizer): 3.1 | Iodine color number, 60 d 40° C. ([4]; Polymer P4 with stabilizer): 3.3 | Iodine color number, start ([4]; Polymer P4 with stabilizer): 3.1 | Iodine color number, 60 d 40° C. [4, 5]: 3.3 | Iodine color number, start [4, 5]: 3.4 | Iodine color number, 60 d 40° C. ([4]; Polymer P6 with stabilizer): 3.5 | Iodine color number, start ([4]; Polymer P6 with stabilizer): 3.4 | Iodine color number, 60 d 40° C. ([4]; Polymer P7 with stabilizer): 3.5 | Iodine color number, start ([4]; Polymer P7 with stabilizer): 3.4 | Iodine color number, 60 d 40° C. ([4]; Polymer P8 with stabilizer): 3.5 | Iodine color number, start ([4]; Polymer P8 with stabilizer): 3.2 | Iodine color number, 60 d 40° C. ([4]; Polymer P9 with stabilizer): 3.9 | Iodine color number, start ([4]; Polymer P9 with stabilizer): 3.7
